In ChEMBL document CHEMBL4311986, “Synthesis and biological evaluation of new multi-target 3-(1H-indol-3-yl)pyrrolidine-2,5-dione derivatives with potential antidepressant effect” (Eur J Med Chem, 2019):

Tests used:
[1] = target: Sodium-dependent serotonin transporter (Homo sapiens, UniProt P31645); test: Displacement of [3H]-imipramine from human serotonin transporter expressed in HEK293 cells membranes incubated for 30 mins by microbeta scintillation counting analysis; assay type: cell membranes
[2] = target: T1, 5-hydroxytryptamine receptor 1A (Homo sapiens, UniProt P08908); test: biochemical
T1 sequence (P08908 whole entry): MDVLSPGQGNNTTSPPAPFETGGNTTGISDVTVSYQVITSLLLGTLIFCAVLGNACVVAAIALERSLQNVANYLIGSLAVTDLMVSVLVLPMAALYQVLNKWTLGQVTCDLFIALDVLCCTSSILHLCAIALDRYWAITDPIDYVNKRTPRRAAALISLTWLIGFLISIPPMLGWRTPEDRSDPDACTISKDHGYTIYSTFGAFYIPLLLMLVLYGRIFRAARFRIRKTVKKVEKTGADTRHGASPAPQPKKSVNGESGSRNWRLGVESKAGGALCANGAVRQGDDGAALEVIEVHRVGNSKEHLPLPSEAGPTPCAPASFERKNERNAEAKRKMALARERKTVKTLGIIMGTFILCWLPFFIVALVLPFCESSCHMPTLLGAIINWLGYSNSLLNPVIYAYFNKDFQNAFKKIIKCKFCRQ

Mus musculus [3] = test: Induction of hypothermia in CD-1 mouse assessed as change in body temperature at 5 mg/kg, ip measured after 30 mins by thermometric method; assay type: functional, organism-based
Mus musculus [4] = test: Induction of hypothermia in CD-1 mouse assessed as change in body temperature at 10 mg/kg, ip measured after 30 mins by thermometric method; assay type: functional, organism-based
Mus musculus [5] = test: Induction of hypothermia in CD-1 mouse assessed as change in body temperature at 20 mg/kg, ip measured after 30 mins by thermometric method; assay type: functional, organism-based
Mus musculus [6] = test: Induction of hypothermia in CD-1 mouse assessed as change in body temperature at 5 mg/kg, ip measured after 60 mins by thermometric method; assay type: functional, organism-based
Mus musculus [7] = test: Induction of hypothermia in CD-1 mouse assessed as change in body temperature at 10 mg/kg, ip measured after 60 mins by thermometric method; assay type: functional, organism-based
Mus musculus [8] = test: Induction of hypothermia in CD-1 mouse assessed as change in body temperature at 20 mg/kg, ip measured after 60 mins by thermometric method; assay type: functional, organism-based
Mus musculus [9] = test: Induction of hypothermia in CD-1 mouse assessed as change in body temperature at 5 mg/kg, ip measured after 90 mins by thermometric method; assay type: functional, organism-based
Mus musculus [10] = test: Induction of hypothermia in CD-1 mouse assessed as change in body temperature at 10 mg/kg, ip measured after 90 mins by thermometric method; assay type: functional, organism-based
Mus musculus [11] = test: Induction of hypothermia in CD-1 mouse assessed as change in body temperature at 20 mg/kg, ip measured after 90 mins by thermometric method; assay type: functional, organism-based
Mus musculus [12] = test: Induction of hypothermia in CD-1 mouse assessed as change in body temperature at 5 mg/kg, ip measured after 120 mins by thermometric method; assay type: functional, organism-based
Mus musculus [13] = test: Induction of hypothermia in CD-1 mouse assessed as change in body temperature at 10 mg/kg, ip measured after 120 mins by thermometric method; assay type: functional, organism-based
Mus musculus [14] = test: Induction of hypothermia in CD-1 mouse assessed as change in body temperature at 20 mg/kg, ip measured after 120 mins by thermometric method; assay type: functional, organism-based
Mus musculus [15] = test: Induction of hypothermia in CD-1 mouse assessed as change in body temperature at 10 mg/kg, ip pretreated for 30 mins with 5-HT1AR antagonist WAY100635 followed by compound treatment and measured after 30 mins by thermometric method; assay type: functional, organism-based
Mus musculus [16] = test: Induction of hypothermia in CD-1 mouse assessed as change in body temperature at 10 mg/kg, ip pretreated for 60 mins with 5-HT1AR antagonist WAY100635 followed by compound treatment and measured after 30 mins by thermometric method; assay type: functional, organism-based
D(2) dopamine receptor = D(2) dopamine receptor (Homo sapiens, UniProt P14416); test: Displacement of [3H]-raclopride from human D2L receptor expressed in HEK293 cells incubated for 1 hr by liquid scintillation counting method; assay type: cell-based
[17] = target: 5-hydroxytryptamine receptor 6 (Homo sapiens, UniProt P50406); test: Displacement of [3H]-LSD from human 5-HT6 receptor expressed in HEK293 cells incubated for 1 hr by liquid scintillation counting method; assay type: cell-based
[18] = target: 5-hydroxytryptamine receptor 7 (Homo sapiens, UniProt P34969); test: Displacement of [3H]-5-CT from human 5HT7 receptor expressed in HEK293 cells incubated for 1 hr by liquid scintillation counting method; assay type: cell-based
[19] = Half life in human liver microsomes at 1 uM measured for 5 to 30 mins in presence of NADPH by LC-MS/MS analysis; assay type: ADME, Microsome

5-hydroxytryptamine receptor 6, sequence (P50406 whole entry): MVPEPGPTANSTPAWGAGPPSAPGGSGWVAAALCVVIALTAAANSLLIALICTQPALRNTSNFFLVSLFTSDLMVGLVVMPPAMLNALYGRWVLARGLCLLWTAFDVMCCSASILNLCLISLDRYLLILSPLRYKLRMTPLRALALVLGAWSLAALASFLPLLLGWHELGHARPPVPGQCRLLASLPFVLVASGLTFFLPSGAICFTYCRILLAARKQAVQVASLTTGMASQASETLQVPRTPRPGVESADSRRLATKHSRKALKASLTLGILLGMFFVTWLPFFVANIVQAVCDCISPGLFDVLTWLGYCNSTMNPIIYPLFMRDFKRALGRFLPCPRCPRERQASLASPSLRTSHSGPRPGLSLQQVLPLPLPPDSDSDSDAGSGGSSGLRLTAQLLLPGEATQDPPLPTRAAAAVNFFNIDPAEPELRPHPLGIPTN
5-hydroxytryptamine receptor 7, sequence (P34969 whole entry): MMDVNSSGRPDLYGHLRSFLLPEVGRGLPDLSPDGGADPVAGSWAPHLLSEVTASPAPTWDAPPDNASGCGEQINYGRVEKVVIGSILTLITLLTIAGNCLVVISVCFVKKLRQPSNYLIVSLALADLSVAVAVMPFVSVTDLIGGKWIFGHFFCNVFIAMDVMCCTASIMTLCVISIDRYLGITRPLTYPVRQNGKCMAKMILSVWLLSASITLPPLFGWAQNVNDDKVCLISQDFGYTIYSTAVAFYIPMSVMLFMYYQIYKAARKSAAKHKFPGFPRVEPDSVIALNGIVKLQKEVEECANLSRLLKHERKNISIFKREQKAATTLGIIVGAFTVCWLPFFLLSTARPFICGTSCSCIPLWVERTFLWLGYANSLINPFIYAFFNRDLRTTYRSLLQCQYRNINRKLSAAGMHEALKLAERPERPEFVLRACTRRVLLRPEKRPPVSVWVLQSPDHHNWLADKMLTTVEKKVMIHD
D(2) dopamine receptor, sequence (P14416 whole entry): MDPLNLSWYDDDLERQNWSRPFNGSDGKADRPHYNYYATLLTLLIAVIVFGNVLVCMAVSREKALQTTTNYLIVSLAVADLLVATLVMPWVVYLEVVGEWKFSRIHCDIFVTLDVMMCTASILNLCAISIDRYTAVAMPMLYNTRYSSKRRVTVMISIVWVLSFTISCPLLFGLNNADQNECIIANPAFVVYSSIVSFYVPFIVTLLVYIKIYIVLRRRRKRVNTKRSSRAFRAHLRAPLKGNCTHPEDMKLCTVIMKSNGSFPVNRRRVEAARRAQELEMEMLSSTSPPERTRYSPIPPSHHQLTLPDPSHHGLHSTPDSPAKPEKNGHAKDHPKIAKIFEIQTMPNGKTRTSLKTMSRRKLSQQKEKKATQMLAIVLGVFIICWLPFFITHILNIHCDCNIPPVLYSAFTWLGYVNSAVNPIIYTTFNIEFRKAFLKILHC
Sodium-dependent serotonin transporter, sequence (P31645 whole entry): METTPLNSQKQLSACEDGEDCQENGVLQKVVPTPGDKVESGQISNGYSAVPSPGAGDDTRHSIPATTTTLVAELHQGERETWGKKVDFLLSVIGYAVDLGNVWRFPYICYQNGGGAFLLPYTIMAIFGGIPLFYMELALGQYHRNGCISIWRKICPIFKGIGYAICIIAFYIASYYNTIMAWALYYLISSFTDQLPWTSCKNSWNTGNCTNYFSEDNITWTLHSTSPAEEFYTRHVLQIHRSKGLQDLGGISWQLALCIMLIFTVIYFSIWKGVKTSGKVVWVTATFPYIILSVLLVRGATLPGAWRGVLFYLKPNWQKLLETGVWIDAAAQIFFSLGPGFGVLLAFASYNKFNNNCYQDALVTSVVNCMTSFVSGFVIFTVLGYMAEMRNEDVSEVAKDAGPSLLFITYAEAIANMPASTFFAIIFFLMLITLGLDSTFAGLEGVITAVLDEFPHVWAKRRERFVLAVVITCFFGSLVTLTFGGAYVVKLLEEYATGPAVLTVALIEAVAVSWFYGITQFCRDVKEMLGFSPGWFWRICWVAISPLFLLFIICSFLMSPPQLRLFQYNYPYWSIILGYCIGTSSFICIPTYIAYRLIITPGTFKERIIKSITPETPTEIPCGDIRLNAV

Compound: COc1ccc2[nH]cc(C3CCN(CCCN4C(=O)CC(c5c[nH]c6ccc(F)cc56)C4=O)CC3)c2c1 (centres undefined)
- Ki [1]: 0.156 µM
- Ki [2]: 0.157 µM

Compound: COc1ccc2[nH]cc(C3CC(=O)N(CCCN4CCC(c5c[nH]c6ccc(F)cc56)CC4)C3=O)c2c1 (centres undefined)
- Ki [1]: 0.03 µM
- Ki [2]: 0.246 µM

Compound: COc1ccc2[nH]cc(C3CC(=O)N(CCCCN4CCC(c5c[nH]c6ccc(F)cc56)CC4)C3=O)c2c1 (centres undefined)
- deltaT (Mus musculus [3]): -0.1 °C
- deltaT (Mus musculus [4]): -1.3 °C
- deltaT (Mus musculus [5]): -1.8 °C
- deltaT (Mus musculus [6]): 0.4 °C
- deltaT (Mus musculus [7]): -0.1 °C
- deltaT (Mus musculus [8]): 0.5 °C
- deltaT (Mus musculus [9]): 0.1 °C
- deltaT (Mus musculus [10]): 0.3 °C
- deltaT (Mus musculus [11]): 0.6 °C
- deltaT (Mus musculus [12]): -0.4 °C
- deltaT (Mus musculus [13]): 0.4 °C
- deltaT (Mus musculus [14]): 0.6 °C
- deltaT (Mus musculus [15]): -0.1 °C
- deltaT (Mus musculus [16]): -0.2 °C
- Ki [1]: 0.0175 µM
- Ki (D(2) dopamine receptor): 0.062 µM
- Ki [17]: 0.085 µM
- Ki [18]: 0.641 µM
- half-life at 1 µM [19]: 9.9 min
- Ki [2]: 0.0049 µM

Compound: COc1ccc2[nH]cc(C3CC(=O)N(CCN4CCC(c5c[nH]c6ccc(F)cc56)CC4)C3=O)c2c1 (centres undefined)
- Ki [1]: 0.221 µM
- Ki [2]: 0.222 µM

Compound: CN(C)C(=O)N[C@H]1CC[C@H](CCN2CCN(c3cccc(Cl)c3Cl)CC2)CC1 [CARIPRAZINE]
- Ki [18]: 0.111 µM

Compound: O=C1CC(c2c[nH]c3ccccc23)C(=O)N1CCCCN1CCCC(c2c[nH]c3ccc(F)cc23)C1 (centres undefined)
- Ki [2]: 0.183 µM

Compound: O=C1CC(c2c[nH]c3ccccc23)C(=O)N1CCCCN1CCCC(c2c[nH]c3ccccc23)C1 (centres undefined)
- Ki [2]: 0.122 µM

Compound: COc1ccc2[nH]cc(C3CCN(CCN4C(=O)CC(c5c[nH]c6ccc(F)cc56)C4=O)CC3)c2c1 (centres undefined)
- Ki [1]: 1.31 µM
- Ki [2]: > 5 µM

Compound: COc1ccc2[nH]cc(C3CCN(CCN4C(=O)CC(c5c[nH]c6ccc(OC)cc56)C4=O)CC3)c2c1 (centres undefined)
- Ki [1]: 0.063 µM
- Ki [2]: 0.24 µM

Compound: COc1ccc2[nH]cc(C3CCCN(CCCCN4C(=O)CC(c5c[nH]c6ccccc56)C4=O)C3)c2c1 (centres undefined)
- Ki [2]: 0.078 µM

Compound: COc1ccc2[nH]cc(C3CCCN(CCCCN4C(=O)CC(c5c[nH]c6ccc(OC)cc56)C4=O)C3)c2c1 (centres undefined)
- Ki [2]: 0.052 µM

Compound: COc1ccc2[nH]cc(C3CCN(CCCN4C(=O)CC(c5c[nH]c6ccc(OC)cc56)C4=O)CC3)c2c1 (centres undefined)
- Ki [1]: 0.111 µM
- Ki [2]: 0.0687 µM

Compound: COc1ccc2[nH]cc(C3CCN(CCCCN4C(=O)CC(c5c[nH]c6ccc(F)cc56)C4=O)CC3)c2c1 (centres undefined)
- deltaT (Mus musculus [3]): 0.4 °C
- deltaT (Mus musculus [4]): -1.1 °C
- deltaT (Mus musculus [5]): -3.2 °C
- deltaT (Mus musculus [6]): 0.6 °C
- deltaT (Mus musculus [7]): 0.2 °C
- deltaT (Mus musculus [8]): -1.4 °C
- deltaT (Mus musculus [9]): 0.6 °C
- deltaT (Mus musculus [10]): 0.2 °C
- deltaT (Mus musculus [11]): -0.6 °C
- deltaT (Mus musculus [12]): 0.8 °C
- deltaT (Mus musculus [13]): 0.3 °C
- deltaT (Mus musculus [14]): -0.2 °C
- deltaT (Mus musculus [15]): -0.4 °C
- deltaT (Mus musculus [16]): 0.8 °C
- Ki [1]: 0.201 µM
- Ki (D(2) dopamine receptor): 0.02 µM
- Ki [17]: 0.071 µM
- Ki [18]: 0.458 µM
- half-life at 1 µM [19]: 9.9 min
- Ki [2]: 0.0032 µM

Compound: COc1ccc2[nH]cc(C3CC(=O)N(CCCCN4CCC(c5c[nH]c6ccccc56)CC4)C3=O)c2c1 (centres undefined)
- deltaT (Mus musculus [3]): -0.2 °C
- deltaT (Mus musculus [4]): -1.3 °C
- deltaT (Mus musculus [5]): -2.9 °C
- deltaT (Mus musculus [6]): 0 °C
- deltaT (Mus musculus [7]): -0.4 °C
- deltaT (Mus musculus [8]): -1.5 °C
- deltaT (Mus musculus [9]): 0 °C
- deltaT (Mus musculus [10]): -0.4 °C
- deltaT (Mus musculus [11]): -1.1 °C
- deltaT (Mus musculus [12]): -0.1 °C
- deltaT (Mus musculus [13]): -0.4 °C
- deltaT (Mus musculus [14]): -0.9 °C
- deltaT (Mus musculus [15]): 0.4 °C
- deltaT (Mus musculus [16]): 0.5 °C
- Ki [1]: 0.705 µM
- Ki (D(2) dopamine receptor): 0.016 µM
- Ki [17]: 0.081 µM
- Ki [18]: 0.025 µM
- half-life at 1 µM [19]: 10.5 min
- Ki [2]: 0.0063 µM

Compound: O=C1CC(c2c[nH]c3ccc(F)cc23)C(=O)N1CCCN1CCC(c2c[nH]c3ccccc23)CC1 (centres undefined)
- Ki [1]: 0.151 µM
- Ki [2]: 0.143 µM

Compound: O=C1CC(c2c[nH]c3ccc(F)cc23)C(=O)N1CCCN1CCC(c2c[nH]c3ccc(F)cc23)CC1 (centres undefined)
- Ki [1]: 0.14 µM
- Ki [2]: 0.336 µM

Compound: COc1ccc2[nH]cc(C3CC(=O)N(CCCN4CCC(c5c[nH]c6ccccc56)CC4)C3=O)c2c1 (centres undefined)
- Ki [1]: 0.523 µM
- Ki [2]: 0.204 µM

Compound: O=C1CC(c2c[nH]c3ccc(F)cc23)C(=O)N1CCN1CCC(c2c[nH]c3ccc(F)cc23)CC1 (centres undefined)
- Ki [1]: 0.314 µM
- Ki [2]: 0.7 µM

Compound: COc1ccc2[nH]cc(C3CC(=O)N(CCN4CCC(c5c[nH]c6ccccc56)CC4)C3=O)c2c1 (centres undefined)
- Ki [1]: 0.142 µM
- Ki [2]: 0.0487 µM

Compound: O=C1CC(c2c[nH]c3ccc(F)cc23)C(=O)N1CCN1CCC(c2c[nH]c3ccccc23)CC1 (centres undefined)
- Ki [1]: 0.102 µM
- Ki [2]: 0.32 µM

Compound: O=C1CC(c2c[nH]c3ccc(F)cc23)C(=O)N1CCCCN1CCC(c2c[nH]c3ccc(F)cc23)CC1 (centres undefined)
- deltaT (Mus musculus [3]): 0.4 °C
- deltaT (Mus musculus [4]): -1 °C
- deltaT (Mus musculus [5]): -2 °C
- deltaT (Mus musculus [6]): 0.2 °C
- deltaT (Mus musculus [7]): -0.1 °C
- deltaT (Mus musculus [8]): -0.4 °C
- deltaT (Mus musculus [9]): 0.4 °C
- deltaT (Mus musculus [10]): 0.3 °C
- deltaT (Mus musculus [11]): 0.1 °C
- deltaT (Mus musculus [12]): 0.3 °C
- deltaT (Mus musculus [13]): 0.4 °C
- deltaT (Mus musculus [14]): 0.5 °C
- deltaT (Mus musculus [15]): 0.4 °C
- deltaT (Mus musculus [16]): 0.4 °C
- Ki [1]: 0.0324 µM
- Ki (D(2) dopamine receptor): 0.019 µM
- Ki [17]: 0.301 µM
- Ki [18]: 1.16 µM
- half-life at 1 µM [19]: 8.6 min
- Ki [2]: 0.007 µM
